# Results taken from patent publication US20220227720A1, “DHODH INHIBITORS AND THEIR USE AS ANTIVIRAL AGENTS” (priority 2019, published 2022).
# Where two headings read alike, the source gives them in different places.
# Experiments:
# TBEV [1] = assay: microbe, parasite or virus in culture; format: cell-based; settings: Tick-borne encephalitis virus, HEK293, read-out: IC50 TBEV
# YFV [2] = assay: microbe, parasite or virus in culture; format: cell-based; settings: Yellow fever virus, BHK-21, in Mesocricetus auratus, read-out: IC50 YFV
# TBEV [3] = assay: microbe, parasite or virus in culture; format: cell-based; settings: Tick-borne encephalitis virus, SW13, read-out: IC50 TBEV
# VEEV [4] = assay: microbe, parasite or virus in culture; format: cell-based; settings: Venezuelan equine encephalitis virus, SW13, read-out: IC50 VEEV
# DENV = assay: Virus yield reduction assay, DENV in Vero E6 cells; format: cell-based; settings: Dengue virus, Vero C1008; Simian Vero E6 cells; FLAVI virus family
# [5] = Cytotoxicity assay, BHK-21 cells; settings: hamster, BHK-21 cells, CC50, Hamster BHK-21 cells; value repeated under each virus
# BHK-21 = assay: Cytotoxicity assay, BHK-21 cells; settings: Hamster BHK-21 cells; value repeated under each virus
# RVFV [6] = assay: microbe, parasite or virus in culture; format: cell-based; settings: Rift Valley fever virus, Vero C1008, read-out: IC50 RVFV
# [7] = Hepatic microsome stability; settings: 1 μm, 37° C., 0.5 mg/mL microsomes of mouse liver; cofactor: NADPH
# RVFV [8] = assay: microbe, parasite or virus in culture; format: cell-based; settings: Rift Valley fever virus, HEK293, read-out: IC50 RVFV
# VEEV [9] = assay: microbe, parasite or virus in culture; format: cell-based; settings: Venezuelan equine encephalitis virus, Vero C1008, read-out: IC50 VEEV
# HAZV = assay: microbe, parasite or virus in culture; format: cell-based; settings: Hazara virus, Vero C1008, read-out: IC50 HAZV
# Solubility in PBS pH 7.4 = settings: PBS pH 7.4, 20 °C, pH 7.4, aqueous buffer
# [10] = Cytotoxicity assay (CellTiter-Blue), Vero E6 cells; settings: monkey (simian), Vero E6 cells, CC50, Simian Vero E6 cells; value repeated under each virus
# RVFV [11] = assay: microbe, parasite or virus in culture; format: cell-based; settings: Rift Valley fever virus, BHK-21, in Mesocricetus auratus, read-out: IC50 RVFV
# Plasma stability = settings: 1 μm, 37° C., mouse plasma diluted with 1 volume of PBS pH 7.4
# ZIKV = assay: Virus yield reduction assay, ZIKV in Vero E6 cells; format: cell-based; settings: Zika virus, Vero C1008; Simian Vero E6 cells; FLAVI virus family
# YFV [12] = assay: microbe, parasite or virus in culture; format: cell-based; settings: Yellow fever virus, Vero C1008, read-out: IC50 YFV
# TOSV = assay: microbe, parasite or virus in culture; format: cell-based, Toscana virus; settings: Toscana virus, Vero C1008, read-out: IC50 (TOSV)
# RVFV [13] = assay: microbe, parasite or virus in culture; format: cell-based; settings: Rift Valley fever virus, SW13, read-out: IC50 RVFV
# TBEV [14] = assay: microbe, parasite or virus in culture; format: cell-based; settings: Tick-borne encephalitis virus, Vero C1008, read-out: IC50 TBEV
# [15] = Cytotoxicity assay, SW13 cells; settings: human
# VEEV [16] = assay: microbe, parasite or virus in culture; format: cell-based; settings: Venezuelan equine encephalitis virus, HEK293, read-out: IC50 VEEV
compound,measurement,setting,value
"CCCCCc1ccc(C#Cc2ccc(NC(=O)C(C)C)c(C(=O)O)c2)cc1 [Example 9, 2-Isobutyramido-5-((4-pentylphenyl)ethynyl)benzoic acid]",IC50,TBEV [1],4.4 nM
same,IC50,YFV [2],55 nM
same,IC50,TBEV [3],14 nM
same,IC50,VEEV [4],14 nM
same,IC50,DENV,23 nM
same,CC50,[5],50000 nM
same,CC50,BHK-21,55000 nM
same,IC50,RVFV [6],10 nM
same,Hepatic microsome stability [% remaining at 1 h],[7],45 ± 8 % remaining at 1 h
same,IC50,RVFV [8],< 1.6 nM
same,IC50,VEEV [9],10.7 nM
same,IC50,HAZV,12 nM
same,solubility,Solubility in PBS pH 7.4,13 ± 6 µM
same,CC50 at 4 days,[10],4000 nM
same,IC50,RVFV [11],43 nM
same,Plasma stability [% remaining at 2 h],Plasma stability,98 ± 3 % remaining at 2 h
same,IC50,ZIKV,23 nM
same,IC50,YFV [12],16 nM
same,IC50,TOSV,10 nM
same,IC50,RVFV [13],11 nM
same,IC50,TBEV [14],11.7 nM
same,CC50,[15],17000 nM
same,IC50,VEEV [16],1.5 nM
